# Data reported in the supplement of paper PMC10307832.
# Columns and labels:
# Assay in all cases: relative viability (nuclei count vs DMSO), 5 days (fraction); higher = more cells survive
# [1] = compound: CNC(=O)c1ccccc1Sc1ccc2c(/C=C/c3ccccn3)n[nH]c2c1 [Axitinib] + COc1cccc2cc(-c3nc([C@H]4CC[C@H](C(=O)O)CC4)n4ncnc(N)c34)[nH]c12 [OSI-027] (partner 0.5 µM)
# Procedure, shortened: (§1)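 The day after seeding in 1536-well plates, lung cancer cell lines were treated by pin tool with a single drug, or with a fixed anchor-drug dose together with five library-drug doses (not always all listed) in √10 steps. After 5 days, a combined fix-and-stain solution (final 0.05% Triton X-100, 1% formaldehyde, 1 ug/ml Hoechst) was added. Nuclei counted on 4× images gave relative viability as treated counts over vehicle counts, reported as the median of duplicate plates.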
# [2] = compound: CC1=CC=C(C=C1)C(=O)CN2C3=C(CCCC3)SC2=N [Pifithrin_alpha] + Cc1nc(Nc2ncc(C(=O)Nc3c(C)cccc3Cl)s2)cc(N2CCN(CCO)CC2)n1 [Dasatinib] (partner 0.075 µM)
# Procedure, shortened: as §1
# [3] = compound: CNC(=O)c1ccccc1Sc1ccc2c(/C=C/c3ccccn3)n[nH]c2c1 [Axitinib] + Nc1nc2[nH]cc(CCc3ccc(C(=O)N[C@@H](CCC(=O)O)C(=O)O)cc3)c2c(=O)[nH]1 [Pemetrexed] (partner 0.2 µM)
# Procedure, shortened: as §1
# [4] = compound: CC1=CC=C(C=C1)C(=O)CN2C3=C(CCCC3)SC2=N [Pifithrin_alpha] + Cc1nc(NC(=O)N2CCC[C@H]2C(N)=O)sc1-c1ccnc(C(C)(C)C(F)(F)F)c1 [Alpelisib] (partner 2 µM)
# Procedure, shortened: as §1
Cell Line,relative viability ([1]; first compound 0.005 µM),relative viability ([1]; first compound 0.01581 µM),relative viability ([1]; first compound 0.05 µM),relative viability ([1]; first compound 0.1581 µM),relative viability ([1]; first compound 0.5 µM),relative viability ([2]; first compound 1 µM),relative viability ([2]; first compound 3.162 µM),relative viability ([2]; first compound 10 µM),relative viability ([2]; first compound 31.62 µM),relative viability ([2]; first compound 100 µM),relative viability ([3]; first compound 0.005 µM),relative viability ([3]; first compound 0.01581 µM),relative viability ([3]; first compound 0.05 µM),relative viability ([3]; first compound 0.1581 µM),relative viability ([3]; first compound 0.5 µM),relative viability ([4]; first compound 1 µM),relative viability ([4]; first compound 3.162 µM),relative viability ([4]; first compound 10 µM),relative viability ([4]; first compound 31.62 µM),relative viability ([4]; first compound 100 µM)
A-427,0.422,0.329,0.442,0.434,0.486,0.824,0.635,0.599,0.513,0.702,1.11,1.1,1.01,0.954,1.14,0.756,1.04,1.03,0.836,1
LXF-289,0.76,0.727,0.785,0.763,0.877,0.204,0.201,0.172,0.167,0.145,1.01,0.91,0.968,0.888,0.982,1.09,1.01,1.08,0.921,1.03
NCI-H1355,0.42,0.384,0.492,0.432,0.492,0.502,0.409,0.386,0.414,0.445,1.01,1.03,1.09,1.03,1.01,0.732,0.587,0.559,0.489,0.591
NCI-H1437,0.905,0.832,0.872,0.846,0.847,0.545,0.474,0.401,0.349,0.45,0.321,0.325,0.324,0.336,0.324,1.12,1.01,0.933,0.749,0.989
HCC-366,0.979,0.895,1.09,1.02,0.939,0.501,0.506,0.426,–,0.537,0.151,0.168,0.182,0.208,0.224,0.282,0.3,0.329,–,0.234
NCI-H1299,–,–,–,–,–,–,–,–,–,–,–,–,–,–,–,1.1,1.09,1.07,0.874,1.18
201T,0.735,0.675,0.502,0.706,0.679,0.47,0.337,0.431,0.392,0.399,0.379,0.3,0.294,0.302,0.332,1.04,0.83,0.792,0.81,0.79
IA-LM,–,–,–,–,–,–,–,–,–,–,–,–,–,–,–,0.917,0.757,0.356,0.442,0.423
